From publication PMC6651454, “An Established HPLC-MS/MS Method for Evaluation of the Influence of Salt Processing on Pharmacokinetics of Six Compounds in Cuscutae Semen” (Molecules, 2019)
Read-outs that look alike come from different tables or passages of the source.

Experiment: Pharmacokinetics in rat plasma after oral administration of SF-CS and SP-CS extracts (HPLC-MS/MS)
Format: in vivo, Male Sprague-Dawley rats
Details: for Tmax / AUC(0-inf) / Cmax / AUC(0-t) / MRT last: male, Sprague-Dawley; for Tmax / AUC(0-inf) / Cmax / AUC(0-t) / MRT last / Shape of plasma concentration-time profile / T1/2ka / T1/2α / AUC(0–24h): rat plasma; for AUC(0-t): read-out: AUC0–24h; for MRT last: read-out: MRT0–24h; for Shape of plasma concentration-time profile: oral SF-CS and SP-CS extracts
Experimental: All components were measured on an Agilent 1200 HPLC system (Agilent Corporation, Santa Clara, CA, USA) and API 3200 triple quadrupole mass spectrometer (Concord, ON, Canada) in negative ion mode. Acetonitrile (A) and 0.1% formic acid-water (B) were used to separate the analytes on an Agilent Eclipse plus C18 column (4.6 mm × 100 mm, 1.8 μm) with a flow rate of 0.5 mL·min^−1. […] The equilibration time (10 min) of the sequence was added before the next injection. The column temperature was 30 °C. The optimized main parameters, namely curtain gas, collision gas, ion Spray voltage, and temperature, were set at 30 psi, 8 psi, −4000 V, and 600 °C, respectively.
The plasma sample (100 μL), IS (10 μL) and formic acid (10 μL) were mixed and vortexed for 1 min. Then, 1 mL of ethyl acetate was spiked into the mixed solution and centrifuged for 10 min at 14,000 rpm. The supernatant was transferred and evaporated with nitrogen gas. These residues were re-dissolved with 100 μL methanol. The final solutions were vortexed for 2 min and centrifuged for 10 min. The supernatant was injected into the HPLC-MS/MS and analyzed.
The pharmacokinetic study was conducted in accordance with the Guidelines for the Care and Use of Laboratory Animals by USA National Institutes of Health and approved by the Animal Ethics Committee of Tianjin University of Traditional Chinese Medicine (the permit number: TCM-LAEC2019023, Tianjin, China). Male Sprague-Dawley rats (200–240 g) were fed in the animal laboratory of Tianjin University of Traditional Chinese Medicine under the standard conditions. These rats were fed and given water for 1 week before experimentation. […] In order to investigate the influence of processing on the metabolic process of active ingredients in vivo, the same amount of raw CS was processed and administrated. Depending on the clinical dosage that was applied to the human body, the dosage of SF-CS extracts was 1.9 g kg^−1 (an equivalent dosage of 12.75 g kg^−1 raw CS) for oral administration, while extraction of SP-CS was 2.2 g kg^−1 (an equivalent dosage of 12.50 g kg^−1 raw CS). In order to investigate the influence of salt on the metabolic process of active ingredients in vivo, the dosage of SF-CS extracts was 1.9 g kg^−1 (an equivalent dosage of 12.75 g kg^−1 raw CS) and SF-CS extracts with salt ( 0.26 g kg^−1 ) were used to perform the pharmacokinetic study. […] The collected plasma was centrifuged for 10 min at 6000 rpm and stored at −20 °C before analysis.
All of the pharmacokinetic parameters were estimated with the DAS1.0 system (Medical College of Wannan, China). The maximum concentration of oral administration of CS (Cmax) and the time to reach Cmax (Tmax) were achieved from the concentration–time profile. All values were shown as mean ± standard deviation. Independent t-test was used to compare the pharmacokinetic parameters of the two processed CS.

[1] = oral SF-CS extract (A) 1.9 g kg^-1, n = 10
[2] = oral SF-CS extract (A) 1.9 g kg^-1, n = 10, mean ± SD
[3] = oral SP-CS extract (B) 2.2 g kg^-1, n = 10
[4] = oral SP-CS extract (B) 2.2 g kg^-1, n = 10, mean ± SD

Row | SMILES | Tmax [1] | AUC(0-inf) [2] | Cmax [2] | AUC(0-t) [2] | MRT last [2] | Tmax [3] | AUC(0-inf) [4] | Cmax [4] | AUC(0-t) [4] | MRT last [4] | Shape of plasma concentration-time profile | T1/2ka [2] | T1/2α [2] | T1/2ka [4] | T1/2α [4] | AUC(0–24h) (oral SF-CS extract) | AUC(0–24h) (oral SP-CS extract) | Detection in rat plasma (after oral administration of the two processed products of CS, LLOQ 2 ng·mL^−1)
1 | O=C(/C=C/c1ccc(O)c(O)c1)O[C@@H]1C[C@](O)(C(=O)O)C[C@@H](O)[C@H]1O [Chlorogenic acid, chlorogenic acid] | 3.84 h | 1670 ± 931 ng·h/mL | 257 ± 53 ng/mL | 1660 ± 931 ng·h/mL | 4.81 ± 0.35 h | 0.28 h | 438 ± 289 ng·h/mL | 175 ± 168 ng/mL | 417 ± 281 ng·h/mL | 5.06 ± 1.1 h | double-peak phenomenon | 0.63 ± 0.87 h | 6.53 ± 5.20 h | 0.02 ± 0.01 h | 0.84 ± 0.42 h | – | – | –
2 | O=c1c(O[C@@H]2O[C@H](CO)[C@@H](O)[C@H](O)[C@H]2O)c(-c2ccc(O)c(O)c2)oc2cc(O)cc(O)c12 [Isoquercitrin, isoquercitrin] | – | – | – | – | – | – | – | – | – | – | – | – | – | – | – | – | – | could not be tested
3 | O=c1c(O[C@@H]2O[C@H](CO)[C@H](O)[C@H](O)[C@H]2O)c(-c2ccc(O)c(O)c2)oc2cc(O)cc(O)c12 [Hyperin, hyperin] | 0.74 h | 331 ± 80 ng·h/mL | 21.3 ± 6.98 ng/mL | 172 ± 38 ng·h/mL | 9.19 ± 1.5 h | 0.11 h | 185 ± 153 ng·h/mL | 36.6 ± 21.9 ng/mL | 63 ± 27.8 ng·h/mL | 8.66 ± 2.37 h | – | 2.15 ± 4.21 h | 11.7 ± 6.73 h | 0.01 ± 0.01 h | 0.46 ± 0.30 h | – | – | –
4 | O=C(O)/C=C/c1ccc(O)cc1 [P-coumaric acid, p-coumaric acid] | 0.54 h | 3290 ± 591 ng·h/mL | 1210 ± 310 ng/mL | 3200 ± 635 ng·h/mL | 4.24 ± 1.45 h | 0.33 h | 2800 ± 951 ng·h/mL | 805 ± 307 ng/mL | 2570 ± 792 ng·h/mL | 5.68 ± 1.69 h | – | 0.15 ± 0.12 h | 1.32 ± 0.86 h | 0.05 ± 0.04 h | 1.40 ± 0.95 h | 3200 ± 635 ng·h/mL | 2570 ± 792 ng·h/mL | –

Results, then the compound that gave them:

Row | Tmax [1] | AUC(0-inf) [2] | Cmax [2] | AUC(0-t) [2] | MRT last [2] | Tmax [3] | AUC(0-inf) [4] | Cmax [4] | AUC(0-t) [4] | MRT last [4] | Shape of plasma concentration-time profile | T1/2ka [2] | T1/2α [2] | T1/2ka [4] | T1/2α [4] | AUC(0–24h) (oral SF-CS extract) | AUC(0–24h) (oral SP-CS extract) | Detection in rat plasma (after oral administration of the two processed products of CS, LLOQ 2 ng·mL^−1) | SMILES
5 | 0.99 h | 11.2 ± 10.8 ng·h/mL | 0.65 ± 0.39 ng/mL | 1.27 ± 0.76 ng·h/mL | 2.3 ± 0.98 h | 0.17 h | 2.33 ± 0.72 ng·h/mL | 1.43 ± 0.21 ng/mL | 1.31 ± 0.27 ng·h/mL | 2.13 ± 0.2 h | – | 2.27 ± 5.13 h | 24.6 ± 33.2 h | 0.04 ± 0.00 h | 0.10 ± 0.04 h | 1.27 ± 0.76 ng·h/mL | 1.31 ± 0.27 ng·h/mL | – | O=c1c(O[C@@H]2O[C@H](CO)[C@@H](O)[C@H](O)[C@H]2O)c(-c2ccc(O)cc2)oc2cc(O)cc(O)c12 [Astragalin, astragalin]
6 | 3.75 h | 567 ± 376 ng·h/mL | 88.6 ± 39.6 ng/mL | 548 ± 384 ng·h/mL | 5.57 ± 1.74 h | 0.26 h | 178 ± 22 ng·h/mL | 31.8 ± 17.3 ng/mL | 129 ± 38 ng·h/mL | 8.18 ± 1.66 h | double-peak phenomenon | 1.12 ± 1.66 h | 7.72 ± 7.50 h | 0.02 ± 0.02 h | 3.35 ± 4.31 h | – | – | – | O=C(/C=C/c1ccc(O)c(O)c1)O[C@@H]1C[C@@](O)(C(=O)O)C[C@@H](O)[C@@H]1O [Neochlorogenic acid, neochlorogenic acid]
